Data published in patent publication EP4186488A1, “A TOPICAL COMPOSITION” (Unilever IP Holdings B.V., priority 2021, dated 2023).

System: Human primary melanocytes
Experiment: melanin content assay (MCA)
Type: cell-based
Conditions: 72 hours incubation with active(s), wt% of active(s) as listed per example, OD 405nm, untreated cells = 100% melanin content
Method: In-vitro studies on the effect of the combination of the actives on melanin inhibition using melanin content assay (MCA) was used. The method is described below. Human primary melanocytes were grown in melanocytes growth medium (MGM) with human melanocyte growth supplement. 500 µL/well (5X10^4 cells/well) of this solution was plated in a 24 wells plate and incubated in an incubator (Thermo Scientific, Model 3111) at 37°C with 5% CO2 atmosphere. After 24 hours of incubation, cell cultures were treated with the lead actives either dissolved in water or DMSO. The cells were again incubated for 72 hours in an incubator (Thermo Scientific, Model 3111; conditions: 5% CO2, at 37°C). Comparative vehicle controls of 0.1 % (v/v) DMSO or media control (for aqueous actives) were also set up simultaneously. At the end of the incubation period, cell viability was determined using the calcein method. After calcein fluorescence readings were obtained, drained the cells and added fresh 0.15 ml of 1N NaOH (in 10% DMSO) per well. Cells were lysed by resuspension and incubation (60 °C/1 hr.). Then, 0.12 ml of this lysate was transferred to a fresh […] plate and measured OD405nm in a TECAN M1000 plate reader (estimate of relative melanin content). The spectrophotometric OD at 405nm for untreated cells (No active) is considered as 100% melanin content, with respect to this, treatment (active) percentage is calculated.

| SMILES | % melanin inhibition [%] |
| --- | --- |
| NC(=O)c1cccnc1 [B, Niacinamide] | 7.4 |
| NC(=O)c1cccnc1 [C, Niacinamide] | 9.2 |
| NC(=O)c1cccnc1 [D, Niacinamide] | 6.1 |
| CCCCCCC(O)CCCCCCCCCCC(=O)O (stereo not shown) [E, 12-hydroxystearic acid] | 4.1 |
